Key:
Aquaporin 3 = conditions: skin substitute EpiDermFT; cited from earlier work
E-cadherin = conditions: skin substitute EpiDermFT; cited from earlier work
elastase = conditions: relative to retinol; cited from earlier work
collagenase = conditions: cited from earlier work
rat brain homogenates = conditions: cited from earlier work
Epiderm human skin model = conditions: pH 7.4
Procedure: The irritant potential of the extract was evaluated in vitro, by the colorimetric method (MTT), using the reconstructed epidermis model "EpiDerm® (MatTek Corporation).
In order to determine the safety of birch extract in cosmetics, a method was used to determine the irritant potential using the Epiderm human skin model, which contains a multilayered differentiated epidermis. In this method, the exposure time at which a 50% reduction in the number of viable cells (ET50) occurs is assessed. This number is assessed by measuring the reduction of MTT - 3-(4,5-dimethylthiaz-2-yl)-2-5-diphenyltetrazolium bromide). Formazan, which is blue-violet in colour, is formed as a result of mitochondrial metabolism. Formazan formation allows assessment of the number of cells that have been damaged. A chemical is classified as an irritant if the cell survival rate relative to a negative sample (containing neutral solvent) is below 50%.
The test consisted of applying an appropriate amount of a solution of the test compound to the surface of the epidermis model. Birch extract solutions of 0.25 per cent and 0.5 per cent by weight were prepared, corresponding to the content of this active ingredient in cosmetic preparations. […]

Row | Structure (SMILES) | AQP3 gene expression (Aquaporin 3) | CDH1 gene expression (E-cadherin) | inhibits elastase, compared with retinol (elastase) | inhibits collagenase, effectiveness (collagenase) | lipid peroxidation (rat brain homogenates) | Relative cell viability [%] (Epiderm human skin model)
1 | C=C[C@@](C)(/C=C/c1ccc(O)cc1)CCC=C(C)C [Bakuchiol] | 4.3 | 21.6 | almost nine times more strongly than retinol | 50% |  | 
2 | C=C[C@@](C)(/C=C/c1ccc(OC)cc1)CCC=C(C)C [O-methylbakuchiol] |  |  |  |  | inhibited | 
3 | CC1=C(/C=C/C(C)=C/C=C/C(C)=C/CO)C(C)(C)CCC1 [Retinol] | 3.5 | 9.4 |  | not affected at all |  | 
4 | CCCCCCCCCCCCOS(=O)(=O)[O-].[Na+] [SLS] |  |  |  |  |  | 6.03

— EP4643843A1, “A COSMETIC OIL IN WATER EMULSION COMPOSITION COMPRISING APPLE JUICE” (Ledniowski, Dariusz, priority 2024, dated 2025)
